Here are results for 1 compound from paper PMC4699463 (2015).

Holding throughout (experiment): F-neo fluorescence displacement
The test system of assay [1] is hsa-miR 142 (RNA, miRNA) CAUAAAGUAGAAAGCACUACUUU/AGUAGUGCUUUCUACUUUAUGUU
Conditions: 25 mM KCl; 10 mM sodium phosphate, 0.05 mM EDTA, pH 6.5; tracer 100 nM F-neo, 100 nM miRNA; per site.

Assay [2] has as its system hsa-miR 335 (RNA, miRNA) UCAAGAGCAAUAACGAAAAAUGUUU/ACAUUUUUCGUUAUUGCUCUUGAUU
Conditions: 25 mM KCl; 10 mM sodium phosphate, 0.05 mM EDTA, pH 6.5; tracer 100 nM F-neo, 100 nM miRNA; per site.

Assay [3] concerns pre-hsa-miR 504 (RNA, miRNA) GCUGCUGUUGGGAGACCCUGGUCUGCACUCUAUCUGUAUUCUUACUGAAGGGAGUGCAGGGCAGGGUUUCCCAUACAGAGGGC
To be noted: 25 mM KCl; 10 mM sodium phosphate, 0.05 mM EDTA, pH 6.5; tracer 100 nM F-neo, 16.7 nM pre-miRNA; per site.

Assay [4] relates to hsa-miR 504 (RNA, miRNA) AGACCCUGGUCUGCACUCUAUCUU/GAUAGAGUGCAGACCAGGGUCUUU
To be noted: 25 mM KCl; 10 mM sodium phosphate, 0.05 mM EDTA, pH 6.5; tracer 100 nM F-neo, 50 nM miRNA; per site.

What is called IC50 is the concentration that gives 50% inhibition. Low readings indicate greater potency, high ones weaker potency. On to `NC[C@@H]1O[C@H](O[C@H]2[C@@H](O)[C@H](O[C@@H]3[C@@H](O)[C@H](N)C[C@H](N)[C@H]3O[C@H]3O[C@H](CN)[C@@H](O)[C@H](O)[C@H]3N)O[C@@H]2CO)[C@H](N)[C@@H](O)[C@@H]1O`, for which the concentration for half-maximal inhibition (IC50) in assay [1] was found to be 0.0957 ± 0.0056 µM; in assay [2], 0.1174 ± 0.0081 µM; in assay [3], 0.0562 ± 0.0023 µM; in assay [4] it was 0.0703 ± 0.0016 µM.
